From ChEMBL document CHEMBL1201862, “PubChem BioAssay data set” (2004)
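Five compound concentrations were applied to cells in 96-well plates for 48 hours; endpoints were derived by simple linear interpolation of the resulting dose-response curve. Here, GI50 denotes the concentration required for 50% inhibition of growth.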 Active and inactive are the calls of the source. No stated cut-off is given here; in the data, active = GI50 up to about 1.1 µM and inactive = higher.

Key:
Assay in all cases: DTP human tumour cell line panel, 48 h
HL-60 = tested on: HL-60
T47D = tested on: T47D
HCT-15 = tested on: HCT-15
HCT-116 = tested on: HCT-116
OVCAR-4 = tested on: OVCAR-4
UACC-62 = tested on: UACC-62
SNB-75 = tested on: SNB-75
CAKI-1 = tested on: CAKI-1
SR = tested on: SR
SN12C = tested on: SN12C
786-0 = tested on: 786-0
OVCAR-3 = tested on: OVCAR-3
HCC 2998 = tested on: HCC 2998
ACHN = tested on: ACHN
SF-295 = tested on: SF-295
NCI-H226 = tested on: NCI-H226
PC-3 = tested on: PC-3
OVCAR-5 = tested on: OVCAR-5

**Q.** What does the source list for `CC(=O)OC1CCn2c1nc1cc([N+](=O)[O-])c(C)cc12` (configuration not stated)?
**A.** GI50 (HL-60): > 100 µM (inactive); GI50 (T47D): > 100 µM (inactive); GI50 (HCT-15): > 100 µM; GI50 (HCT-116): > 100 µM (inactive); GI50 (OVCAR-4): > 100 µM (inactive); GI50 (UACC-62): > 100 µM (inactive); GI50 (SNB-75): > 100 µM (inactive); GI50 (CAKI-1): > 100 µM (inactive); GI50 (SR): > 100 µM (inactive); GI50 (SN12C): > 100 µM (inactive); GI50 (786-0): > 100 µM (inactive); GI50 (OVCAR-3): > 100 µM (inactive); GI50 (HCC 2998): > 100 µM (inactive); GI50 (ACHN): > 100 µM (inactive); GI50 (SF-295): > 100 µM (inactive); GI50 (NCI-H226): > 100 µM (inactive); GI50 (PC-3): > 100 µM (inactive)

**Q.** With `Cc1c2c(nc3ccccc13)C(=O)c1cccnc1C2=O` as the compound, how does the GI50 (HL-60) read?
**A.** Its GI50 is 15.1 µM (inactive).

**Q.** What about the GI50 (T47D) of the same compound?
**A.** Its GI50 is 26.7 µM (inactive).

**Q.** What about the GI50 (HCT-15) of the same compound?
**A.** Its GI50 is 10.9 µM.

**Q.** And the GI50 (HCT-116)?
**A.** The GI50 was 3.91 µM (inactive).

**Q.** What about the GI50 (OVCAR-4) of the same compound?
**A.** Its GI50 is 56.2 µM (inactive).

**Q.** And the GI50 (UACC-62)?
**A.** The GI50 was 3.15 µM (inactive).

**Q.** What about the GI50 (SNB-75) of the same compound?
**A.** The GI50 was 11.1 µM (inactive).

**Q.** What about the GI50 (SR) of the same compound?
**A.** Its GI50 is 6.5 µM (inactive).

**Q.** What about the GI50 (SN12C) of the same compound?
**A.** The GI50 was 5.79 µM (inactive).

**Q.** And the GI50 (786-0)?
**A.** Its GI50 is 33.3 µM (inactive).

**Q.** And the GI50 (OVCAR-3)?
**A.** The GI50 was 11.7 µM (inactive).

**Q.** And the GI50 (HCC 2998)?
**A.** The GI50 was 7.62 µM (inactive).

**Q.** And the GI50 (ACHN)?
**A.** The GI50 was 10.6 µM (inactive).

**Q.** What about the GI50 (OVCAR-5) of the same compound?
**A.** Its GI50 is 60.4 µM (inactive).

**Q.** And the GI50 (SF-295)?
**A.** Its GI50 is 12.4 µM (inactive).

**Q.** What about the GI50 (NCI-H226) of the same compound?
**A.** Its GI50 is 18.9 µM (inactive).

**Q.** What about the GI50 (PC-3) of the same compound?
**A.** The GI50 was 24.3 µM (inactive).

**Q.** Which results are given for `CC1CC(=O)N(N(C)C)C2(C#N)C(=O)N=C(N)C12C#N` (configuration not stated)?
**A.** GI50 (HL-60): 19.3 µM (inactive); GI50 (T47D): > 100 µM (inactive); GI50 (HCT-15): > 100 µM; GI50 (HCT-116): > 100 µM (inactive); GI50 (OVCAR-4): > 100 µM (inactive); GI50 (UACC-62): 35.8 µM (inactive); GI50 (SNB-75): > 100 µM (inactive); GI50 (CAKI-1): 23.4 µM (inactive); GI50 (SR): > 100 µM (inactive); GI50 (SN12C): > 100 µM (inactive); GI50 (786-0): > 100 µM (inactive); GI50 (HCC 2998): > 100 µM (inactive); GI50 (ACHN): > 100 µM (inactive); GI50 (OVCAR-5): > 100 µM (inactive); GI50 (SF-295): > 100 µM (inactive); GI50 (PC-3): > 100 µM (inactive)

**Q.** Which results are given for `CC(C)=Cc1cc2c(cc1O)CCC1C2CC[C@@]2(C)C1CC[C@@H]2O` (some centres not stated)?
**A.** GI50 (HL-60): 15.2 µM (inactive); GI50 (T47D): 12.6 µM (inactive); GI50 (HCT-15): 8.89 µM; GI50 (HCT-116): 10.3 µM (inactive); GI50 (OVCAR-4): 30.3 µM (inactive); GI50 (SNB-75): 3.56 µM (inactive); GI50 (CAKI-1): 13.5 µM (inactive); GI50 (SR): 3.18 µM (inactive); GI50 (SN12C): 14.7 µM (inactive); GI50 (786-0): 12.4 µM (inactive); GI50 (HCC 2998): 14.1 µM (inactive); GI50 (ACHN): 14 µM (inactive); GI50 (OVCAR-5): 15.7 µM (inactive); GI50 (SF-295): 2.26 µM (inactive); GI50 (NCI-H226): 8.81 µM (inactive); GI50 (PC-3): 11.7 µM (inactive)

**Q.** What does the source list for `CC1(C)CCCCCCCCCC2CC2CCC(C)(C)C1=O` (configuration not stated)?
**A.** GI50 (HL-60): 22 µM (inactive); GI50 (T47D): 18.9 µM (inactive); GI50 (HCT-15): 16.5 µM; GI50 (HCT-116): 16.6 µM (inactive); GI50 (OVCAR-4): 32.9 µM (inactive); GI50 (UACC-62): 36.1 µM (inactive); GI50 (SNB-75): 28.6 µM (inactive); GI50 (CAKI-1): 33.5 µM (inactive); GI50 (SR): 6.59 µM (inactive); GI50 (SN12C): 18.4 µM (inactive); GI50 (786-0): 17.2 µM (inactive); GI50 (OVCAR-3): 12.7 µM (inactive); GI50 (ACHN): 19.1 µM (inactive); GI50 (OVCAR-5): 21.2 µM (inactive); GI50 (SF-295): 18.3 µM (inactive); GI50 (NCI-H226): 14.2 µM (inactive); GI50 (PC-3): 28.8 µM (inactive)

**Q.** `S=C(Nc1cccc(Cl)c1)Nc1ccccn1` was tested. Which GI50 (HL-60) did it give?
**A.** The GI50 was > 100 µM (inactive).

**Q.** And the GI50 (T47D)?
**A.** The GI50 was > 100 µM (inactive).

**Q.** And the GI50 (HCT-15)?
**A.** The GI50 was > 100 µM.

**Q.** And the GI50 (HCT-116)?
**A.** Its GI50 is > 100 µM (inactive).

**Q.** And the GI50 (OVCAR-4)?
**A.** Its GI50 is > 100 µM (inactive).

**Q.** And the GI50 (UACC-62)?
**A.** Its GI50 is > 100 µM (inactive).

**Q.** And the GI50 (SNB-75)?
**A.** Its GI50 is 1.14 µM (inactive).

**Q.** What about the GI50 (CAKI-1) of the same compound?
**A.** The GI50 was > 100 µM (inactive).

**Q.** What about the GI50 (SR) of the same compound?
**A.** Its GI50 is > 100 µM (inactive).

**Q.** And the GI50 (SN12C)?
**A.** Its GI50 is > 100 µM (inactive).

**Q.** And the GI50 (786-0)?
**A.** Its GI50 is > 100 µM (inactive).

**Q.** And the GI50 (OVCAR-3)?
**A.** Its GI50 is > 100 µM (inactive).

**Q.** What about the GI50 (OVCAR-5) of the same compound?
**A.** Its GI50 is > 100 µM (inactive).

**Q.** What about the GI50 (SF-295) of the same compound?
**A.** Its GI50 is > 100 µM (inactive).

**Q.** What about the GI50 (NCI-H226) of the same compound?
**A.** The GI50 was > 100 µM (inactive).

**Q.** What about the GI50 (PC-3) of the same compound?
**A.** The GI50 was > 100 µM (inactive).

**Q.** What does the source list for `COC(=O)/C(=C\Nc1cccc(C)n1)S(=O)(=O)c1ccc(C)cc1`?
**A.** GI50 (HL-60): 20.7 µM (inactive); GI50 (T47D): 48 µM (inactive); GI50 (HCT-15): 45.3 µM; GI50 (HCT-116): 52.2 µM (inactive); GI50 (OVCAR-4): 93.5 µM (inactive); GI50 (UACC-62): 31.5 µM (inactive); GI50 (SNB-75): 71 µM (inactive); GI50 (SR): 61.2 µM (inactive); GI50 (SN12C): > 100 µM (inactive); GI50 (786-0): > 100 µM (inactive); GI50 (OVCAR-3): 86.3 µM (inactive); GI50 (HCC 2998): > 100 µM (inactive); GI50 (ACHN): > 100 µM (inactive); GI50 (OVCAR-5): > 100 µM (inactive); GI50 (SF-295): > 100 µM (inactive); GI50 (NCI-H226): 36.5 µM (inactive); GI50 (PC-3): 38.8 µM (inactive)

**Q.** What does the source list for `CC1(C)OCC([C@H]2O[C@@H](CC(=S)NCCCCCCCCCCCCNC(=S)C[C@H]3O[C@@H](C4COC(C)(C)O4)[C@H]4OC(C)(C)O[C@H]43)[C@H]3OC(C)(C)O[C@H]32)O1` (some centres not stated)?
**A.** GI50 (HL-60): 30.4 µM (inactive); GI50 (T47D): 19.2 µM (inactive); GI50 (HCT-15): 73.1 µM; GI50 (HCT-116): 35.7 µM (inactive); GI50 (OVCAR-4): 43.3 µM (inactive); GI50 (SNB-75): > 100 µM (inactive); GI50 (CAKI-1): 17.5 µM (inactive); GI50 (SR): 34.8 µM (inactive); GI50 (786-0): 83.8 µM (inactive); GI50 (OVCAR-3): 74.5 µM (inactive); GI50 (HCC 2998): 75.7 µM (inactive); GI50 (ACHN): 49.3 µM (inactive); GI50 (OVCAR-5): > 100 µM (inactive); GI50 (SF-295): 31.6 µM (inactive); GI50 (NCI-H226): > 100 µM (inactive); GI50 (PC-3): 25.5 µM (inactive)
